Measurements from the CheMixHub viscosity set.

Experiment: xn = mol fraction of the nth substance listed

CCOC(=O)CC(C)=O + CCCCO
viscosity [mPa·s], 100 kPa
Conditions | x1 = 0.077 | x1 = 0.1552 | x1 = 0.2375 | x1 = 0.324 | x1 = 0.4191 | x1 = 0.5209 | x1 = 0.6261 | x1 = 0.74 | x1 = 0.861
293.15 K | 2.378 | 2.032 | 1.795 | 1.639 | 1.567 | 1.564 | 1.56 | 1.565 | 1.603
298.15 K | 2.063 | 1.788 | 1.629 | 1.525 | 1.466 | 1.435 | 1.425 | 1.427 | 1.46

OCCO + CCCCO
298 K, 101.33 kPa
Conditions | viscosity [mPa·s]
x1 = 0.1527 | 3.18
x1 = 0.5229 | 6.05
x1 = 0.7115 | 8.75
x1 = 0.868 | 12.33

CC(C)NC(C)C + CCCCOCCO
viscosity [mPa·s], 100 kPa
Conditions | 298.15 K | 303.15 K | 308.15 K
x2 = 0.0501 | 0.42 | 0.4 | 0.38
x2 = 0.1005 | 0.47 | 0.44 | 0.42
x2 = 0.15 | 0.54 | 0.5 | 0.47
x2 = 0.2024 | 0.63 | 0.58 | 0.54
x2 = 0.2999 | 0.8 | 0.73 | 0.68
x2 = 0.3999 | 1.06 | 0.95 | 0.89
x2 = 0.5001 | 1.38 | 1.23 | 1.14
x2 = 0.6002 | 1.77 | 1.56 | 1.42
x2 = 0.6997 | 2.14 | 1.85 | 1.68
x2 = 0.7998 | 2.48 | 2.14 | 1.95
x2 = 0.8999 | 2.74 | 2.39 | 2.14
x2 = 0.9499 | 2.82 | 2.47 | 2.21

CCC(=O)c1ccccc1 + CCCCOCCO
viscosity [mPa·s], 101 kPa
Conditions | x1 = 0.0996 | x1 = 0.1994 | x1 = 0.2992 | x1 = 0.399 | x1 = 0.499 | x1 = 0.599 | x1 = 0.6992 | x1 = 0.7994 | x1 = 0.8996
303.15 K | 2.333 | 2.24 | 2.148 | 2.056 | 1.964 | 1.873 | 1.782 | 1.692 | 1.602
308.15 K | 2.192 | 2.109 | 2.027 | 1.946 | 1.865 | 1.784 | 1.704 | 1.624 | 1.545
313.15 K | 2.044 | 1.972 | 1.901 | 1.831 | 1.762 | 1.692 | 1.622 | 1.554 | 1.486
318.15 K | 1.863 | 1.805 | 1.749 | 1.694 | 1.639 | 1.584 | 1.53 | 1.476 | 1.424
